Measured values as given in patent US12201628B2, “Neuronal modulation” (priority 2013, dated 2025).
“Also recorded” adds a separate entry of the source.

Tests used:
[1] = tested on: solid melanoma (B16) tumor and Lewis lung carcinoma (LLC); test: Tumor growth after VTA dopaminergic neuron activation; type: in vivo, mice
Method: For the expression of DREADDs, injected Cre-dependent adeno-associated virus (AAV) vector expressing DREADDs fused with red fluorescent protein mCherry, was injected into the VTA of tyrosine hydroxylase (TH)-Cre transgenic mice.
Then the mice were challenged with 500×10^3 LLC cells (Lewis Lung carcinoma Cells) or 200×10^3 B16 melanoma tumor cells (gently injected subcutaneously into the middle right flank of each animal).
28 days from the tumor cells injection a group of the tumor-bearing animals were euthanized to dissect the tumor tissue and check for metastasis (FIG. 12). The spleen bone marrow and tumors were isolated to characterize the changes in immune cells. The CyTOF was used to analyze the immune system as well as FACS analysis.

E. coli = test: In-vitro E. coli killing assay with spleen monocytes/macrophages; type: cell-based, mice; settings: monocytes/macrophages from spleens 24 h after CNO; VTA-activated vs control; intact SNS
Method: To evaluate the anti-bacterial efficiency of the spleen monocytes, an in-vitro killing assay was performed. Splenocytes from VTA-activated and control mice were extracted 24 hour after IP injection of CNO. Splenocytes underwent a monocyte enrichment negative selection procedure using the EasySep mouse monocyte enrichment kit (Stem-Cells Technologies, Vancouver, Canada). Enriched monocytes co-cultured with E. coli bacteria at a 12:1 ratio, in RPMI medium containing 10% foetal bovine serum, and incubated at 37° C. for 4 h. Monocytes were then lysed by adding 0.1% Triton X-100 (Sigma-Aldrich, US), and the lysates were diluted ×1000 in PBS. The diluted media were plated onto agar petri dishes, which were then incubated overnight at 37° C. Twelve hours later, the number of remaining bacteria colonies was counted.
To test for functional changes in immune activity following VTA activation, monocytes/macrophages were assayed (the most profound changes in the CyTOF screen). Due to the increase in CD206 levels on these cells, their phagocytic capacity was examined. Cd11b+, Ly6G-cells were isolated from the spleens of both VTA-activated and control mice 24 h following CNO injection. Cells were cultured with E. coli for four hours and then lysed.
The remaining media was plated on agar plates and counted the remaining bacteria colonies. […]

GFP-expressing E. coli = test: In-vivo E. coli phagocytosis; parameters: species or system mice; settings: E. coli injected 24 h after VTA activation, analysed 2 h later; vs controls
Method: Virus-injected mice were IP treated with CNO. Twenty four hours later, GFP-expressing E. coli (MG165K12; 8×10^8 CFU/mouse) were injected IP. After two hours, the peritoneal lymphocytes were collected by peritoneal lavage. For peritoneal lavage, the mice were sacrificed and their skin was cleaned with 70% ethanol. Then, 5 ml ice-cold PBS containing 1% fetal bovine serum were injected into the peritoneum, followed by gentle massage to allow distribution of the lavage fluid throughout the peritoneal cavity. The fluid was then collected using a 5 ml syringe attached to a 21-gauge needle, and cells were then washed twice in FACS staining buffer (PBS containing 1% bovine serum albumin and 0.05% sodium azide). In order to evaluate the degree of monocyte phagocytosis of the fluorescent bacteria, peritoneal lavage cells were stained with PerCP-conjugated anti-CD11b antibody (M1/70, Biolegend). All samples were analyzed on an LSRFortessa cell analyzer (BD Biosciences, NJ). […]
To determine the effects of VTA activation on antibacterial activity in vivo, the VTA-dopaminergic neurons were activated, and 24 h later injected the mice with GFP-expressing E. coli. Two hours later, lymphocytes were extracted from the peritoneal cavity of the mice and determined by flow cytometry GFP levels; only cells that phagocytized the E. coli could express GFP.

IL-4 and IL-1β = test: Serum cytokine levels (RayBio antibody array, ELISA); type: in vivo, mice; settings: 24 h after CNO; VTA-activated vs control
Method: VTA-activated and control mice were treated with CNO. Twenty four hours later, they were anaesthetized with ketamine/xylazine and their blood was collected by cardiac puncture. The blood was allowed to clot at room temperature for at least 30 minutes. Serum was collected by centrifuging the sample at 400 g for 10 min. The serum samples pooled from each experimental group (VTA-activated group and control group) were analyzed for cytokine and chemokine levels using the RayBio custom G-Series mouse cytokine antibody array kit (RayBiotech; Norcross, GA) according to manufacturer's instructions. The panel included: CD30 ligand, Eotaxin-1, Eotaxin-2, IFN-γ, IL-1α, IL-1β, IL-2, IL-3, IL-4, IL-6, IL-9, IL-10, IL-12 p40/p70, IL-12 p70, IL-13, IL-17A, MIP-1α, MIP-1γ, RANTES and TNFα. Murine IL-4 and IL-1β standard ELISA kits (PeproTech; Rocky Hill, NJ) were used as a quantitative validation of the IL-4 and IL-1β levels measured with the antibody array kit.

[2] = tested on: immune populations in the spleen; test: CyTOF of spleen after VTA DA activation and LPS injection; type: in vivo, mice; settings: spleen 24 h after VTA DA activation and LPS injection; Gq vs control
Method: FIGS. 3A-3E. Are graphs showing the effects of VTA DA neurons activation on a numbers of defined immune populations in the spleen as determined by CyTOF. FIG. 3A is an experimental timeline: spleens were collected from control and Gq mice 24 h after VTA DA activation and LPS injection (5 ug/kg). […] The individual ions were counted and then parsed into a flow cytometry file format. This file can be analyzed by traditional flow cytometry software or by SPADE, which allows integrating the complex information. SPADE analysis is composed of several steps: A density-dependent down-sampling of the original data is clustered. Adjacent clusters are drawn in alternating colors. Minimum spanning tree that connects the cell clusters is generated and color-coded. Nodes are colored by the number of cells in each cluster (7-547 cells). This allows visualization of the changes in the various immune populations. Cluster of CD8, CD4, NK B cell and monocytes are indicated.
CyTOF mass cytometry: Single-cell suspensions of cells from the blood/bone marrow/spleen/lymph nodes of the treated mice are stained with monoclonal or polyclonal antibodies, conjugated to metal probes. […]

[3] = mice; cited from earlier work

C[N+]1([O-])CCN(C2=Nc3cc(Cl)ccc3Nc3ccccc32)CC1 [CNO, clozapine-N-oxide]
tumor weight / size (B16 melanoma) ([1]; CNO daily, two sessions of three days, Gq group vs control): Reduced tumor size
reduction in tumor size ([1]; VTA-activated vs control mice, B16 melanoma and LLC): over 40%
abundance of CD11b+Gr1+ MDSCs ([1]; VTA-activated vs control mice, spleen, bone marrow and tumor): significant reduction in the abundance; also recorded: reduced abundance of MDSCs
number of remaining E. coli colonies (E. coli): significant decrease
number of CD11b+GFP+ cells in the peritoneum (GFP-expressing E. coli): increased number of CD11b+GFP+ cells
serum IL-1β level (IL-4 and IL-1β): significantly reduced
serum IL-4 level (IL-4 and IL-1β): significantly reduced
levels of CD69 [2]: No change was detected
conversion of CNO to clozapine [3]: does not convert to clozapine
